Consider 2 compounds from paper PMC7863721, “Plasticity of Carbohydrate Transport at the Blood-Brain Barrier” (Frontiers in Behavioral Neuroscience, 2021).

The target in assay [1] is T1, MFS3 (Major Facilitator Superfamily Transporter 3); MFS3-3xHA (Drosophila melanogaster, UniProt Q9VPX2).
T1 construct: b38 prints CG4762, apparently a misprint of CG4726
T1 sequence (Q9VPX2 1-512): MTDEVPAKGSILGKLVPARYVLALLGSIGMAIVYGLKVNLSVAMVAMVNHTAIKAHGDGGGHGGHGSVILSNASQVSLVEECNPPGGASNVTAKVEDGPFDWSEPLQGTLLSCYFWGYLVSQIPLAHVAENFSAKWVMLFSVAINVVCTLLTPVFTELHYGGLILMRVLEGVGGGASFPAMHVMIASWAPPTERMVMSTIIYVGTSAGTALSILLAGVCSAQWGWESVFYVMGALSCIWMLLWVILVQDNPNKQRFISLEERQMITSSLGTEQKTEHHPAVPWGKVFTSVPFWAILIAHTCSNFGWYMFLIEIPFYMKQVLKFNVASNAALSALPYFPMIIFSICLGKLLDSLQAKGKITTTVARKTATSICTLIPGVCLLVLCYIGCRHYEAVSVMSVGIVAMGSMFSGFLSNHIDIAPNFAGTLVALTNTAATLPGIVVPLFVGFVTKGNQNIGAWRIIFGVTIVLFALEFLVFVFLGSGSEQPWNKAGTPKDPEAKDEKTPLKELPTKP
The assay is described as follows: […]-sugar uptake into cRNA-injected Xenopus oocytes, net flux over native oocytes. Type of assay: cell-based. The following applies: labelled compound; pH 7.2, 60 min; concentration series; no reliable Km or Vmax obtained.

The target of assay [2] is T2, Pippin (CG4797); Pippin-3xHA (Drosophila melanogaster, UniProt Q8MLQ7).
T2 sequence (Q8MLQ7 1-533): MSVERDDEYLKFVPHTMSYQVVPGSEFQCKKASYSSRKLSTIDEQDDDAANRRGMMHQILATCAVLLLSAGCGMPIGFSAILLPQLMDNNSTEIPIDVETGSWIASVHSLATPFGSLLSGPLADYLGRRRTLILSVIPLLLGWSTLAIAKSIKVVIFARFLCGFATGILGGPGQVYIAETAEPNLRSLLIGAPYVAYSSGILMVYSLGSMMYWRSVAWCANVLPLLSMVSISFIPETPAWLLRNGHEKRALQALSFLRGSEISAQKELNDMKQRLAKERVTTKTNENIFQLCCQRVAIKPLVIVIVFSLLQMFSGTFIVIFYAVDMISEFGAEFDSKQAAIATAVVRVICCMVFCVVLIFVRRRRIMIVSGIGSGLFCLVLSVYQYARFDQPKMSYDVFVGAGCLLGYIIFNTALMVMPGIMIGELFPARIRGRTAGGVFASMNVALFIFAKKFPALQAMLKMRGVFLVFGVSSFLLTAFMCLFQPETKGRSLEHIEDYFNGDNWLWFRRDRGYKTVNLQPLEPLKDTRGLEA
The assay is described as above. Type of assay: cell-based. As to conditions: labelled compound; pH 7.2, 60 min; concentration series; no reliable Km or Vmax obtained.

With `OC[C@H]1OC(O)[C@H](O)[C@@H](O)[C@@H]1O` (stereo partly shown) [glucose], the “14C-sugar uptake into cRNA-injected Xenopus oocytes, net flux over native oocyte” value was “both Pippin and MFS3 facilitate uptake of glucose and trehalose efficiently” in assay [1]; “both Pippin and MFS3 facilitate uptake of glucose and trehalose efficiently” in assay [2].

`OC[C@H]1O[C@H](O[C@H]2O[C@H](CO)[C@@H](O)[C@H](O)[C@H]2O)[C@H](O)[C@@H](O)[C@@H]1O` [trehalose]: the “14C-sugar uptake into cRNA-injected Xenopus oocytes, net flux over native oocyte” value in assay [1] was “both Pippin and MFS3 facilitate uptake of glucose and trehalose efficiently”; in assay [2], “both Pippin and MFS3 facilitate uptake of glucose and trehalose efficiently”.
